Source: the NIST ThermoML archive (doi:10.1016/j.jct.2014.07.019)
Numbers after ± are expanded uncertainties.

What was measured:
[1] = 100 kPa, Liquid; for speed of sound: Frequency=3 MHz, Sing-around technique in a fixed-path interferometer; for mass density: Vibrating tube method
[2] = xn = mol fraction of the nth substance listed; settings: 100 kPa, Liquid, x2 = 0; for speed of sound: Frequency=3 MHz, Sing-around technique in a fixed-path interferometer; for mass density: Vibrating tube method

Structure (SMILES) | speed of sound ([1]; 293.15 K) | mass density ([1]; 293.15 K) | speed of sound ([1]; 298.15 K) | mass density ([1]; 298.15 K) | speed of sound ([1]; 303.15 K) | mass density ([1]; 303.15 K) | speed of sound ([1]; 308.15 K) | mass density ([1]; 308.15 K) | speed of sound ([1]; 313.15 K) | mass density ([1]; 313.15 K) | speed of sound ([2]; 293.15 K) | mass density ([2]; 293.15 K) | speed of sound ([2]; 298.15 K) | mass density ([2]; 298.15 K) | speed of sound ([2]; 303.15 K) | mass density ([2]; 303.15 K) | speed of sound ([2]; 308.15 K) | mass density ([2]; 308.15 K) | speed of sound ([2]; 313.15 K) | mass density ([2]; 313.15 K)
CCCCOCC(C)O (stereo not given) [1-butoxy-2-propanol] | 1279 ± 1.3 m/s | 879.031 ± 0.15 kg/m3 | 1260.9 ± 1.3 m/s | 874.632 ± 0.15 kg/m3 | 1242.9 ± 1.3 m/s | 870.204 ± 0.15 kg/m3 | 1224.9 ± 1.3 m/s | 865.737 ± 0.15 kg/m3 | 1207 ± 1.3 m/s | 861.241 ± 0.15 kg/m3 |  |  |  |  |  |  |  |  |  | 
CCC(C)O (stereo not given) [butan-2-ol] | 1230.2 ± 1.3 m/s | 806.679 ± 0.16 kg/m3 | 1213.3 ± 1.3 m/s | 802.563 ± 0.16 kg/m3 | 1197.2 ± 1.2 m/s | 798.352 ± 0.16 kg/m3 | 1177 ± 1.2 m/s | 794.058 ± 0.17 kg/m3 | 1158.9 ± 1.2 m/s | 789.668 ± 0.17 kg/m3 |  |  |  |  |  |  |  |  |  | 
CCC(C)O (stereo not given) [butan-2-ol] + CCCCOCC(C)O |  |  |  |  |  |  |  |  |  |  | 1230.2 ± 1.3 m/s | 806.679 ± 0.16 kg/m3 | 1213.3 ± 1.3 m/s | 802.563 ± 0.16 kg/m3 | 1197.2 ± 1.2 m/s | 798.352 ± 0.16 kg/m3 | 1177 ± 1.2 m/s | 794.058 ± 0.17 kg/m3 | 1158.9 ± 1.2 m/s | 789.668 ± 0.17 kg/m3
CCCO [propan-1-ol] + CCCCOCC(C)O |  |  |  |  |  |  |  |  |  |  | 1224.2 ± 1.3 m/s | 804.144 ± 0.16 kg/m3 | 1207 ± 1.3 m/s | 800.13 ± 0.16 kg/m3 | 1189.8 ± 1.2 m/s | 796.08 ± 0.16 kg/m3 | 1172.8 ± 1.2 m/s | 792.001 ± 0.17 kg/m3 | 1156.2 ± 1.2 m/s | 787.884 ± 0.17 kg/m3
CC(C)O [propan-2-ol] | 1168.5 ± 1.2 m/s | 785.739 ± 0.15 kg/m3 | 1148 ± 1.2 m/s | 781.588 ± 0.15 kg/m3 | 1132.2 ± 1.2 m/s | 777.468 ± 0.15 kg/m3 | 1114.3 ± 1.1 m/s | 773.151 ± 0.15 kg/m3 | 1096.2 ± 1.1 m/s | 768.446 ± 0.15 kg/m3 |  |  |  |  |  |  |  |  |  | 

Results, then the compound that gave them:

speed of sound ([1]; 293.15 K) | mass density ([1]; 293.15 K) | speed of sound ([1]; 298.15 K) | mass density ([1]; 298.15 K) | speed of sound ([1]; 303.15 K) | mass density ([1]; 303.15 K) | speed of sound ([1]; 308.15 K) | mass density ([1]; 308.15 K) | speed of sound ([1]; 313.15 K) | mass density ([1]; 313.15 K) | speed of sound ([2]; 293.15 K) | mass density ([2]; 293.15 K) | speed of sound ([2]; 298.15 K) | mass density ([2]; 298.15 K) | speed of sound ([2]; 303.15 K) | mass density ([2]; 303.15 K) | speed of sound ([2]; 308.15 K) | mass density ([2]; 308.15 K) | speed of sound ([2]; 313.15 K) | mass density ([2]; 313.15 K) | Structure (SMILES)
1257.5 ± 1.2 m/s | 809.807 ± 0.15 kg/m3 | 1240.6 ± 1.2 m/s | 805.986 ± 0.15 kg/m3 | 1223.7 ± 1.2 m/s | 802.139 ± 0.15 kg/m3 | 1207 ± 1.2 m/s | 798.261 ± 0.15 kg/m3 | 1190.5 ± 1.2 m/s | 794.385 ± 0.15 kg/m3 |  |  |  |  |  |  |  |  |  |  | CCCCO [butan-1-ol]
 |  |  |  |  |  |  |  |  |  | 1257.5 ± 1.2 m/s | 809.807 ± 0.15 kg/m3 | 1240.6 ± 1.2 m/s | 805.986 ± 0.15 kg/m3 | 1223.7 ± 1.2 m/s | 802.139 ± 0.15 kg/m3 | 1207 ± 1.2 m/s | 798.261 ± 0.15 kg/m3 | 1190.5 ± 1.2 m/s | 794.385 ± 0.15 kg/m3 | CCCCO [butan-1-ol] + CCCCOCC(C)O
1224.2 ± 1.3 m/s | 804.144 ± 0.16 kg/m3 | 1207 ± 1.3 m/s | 800.13 ± 0.16 kg/m3 | 1189.8 ± 1.2 m/s | 796.08 ± 0.16 kg/m3 | 1172.8 ± 1.2 m/s | 792.001 ± 0.17 kg/m3 | 1156.2 ± 1.2 m/s | 787.884 ± 0.17 kg/m3 |  |  |  |  |  |  |  |  |  |  | CCCO [propan-1-ol]
 |  |  |  |  |  |  |  |  |  | 1168.5 ± 1.2 m/s | 785.739 ± 0.15 kg/m3 | 1148 ± 1.2 m/s | 781.588 ± 0.15 kg/m3 | 1132.2 ± 1.2 m/s | 777.468 ± 0.15 kg/m3 | 1114.3 ± 1.1 m/s | 773.151 ± 0.15 kg/m3 | 1096.2 ± 1.1 m/s | 768.446 ± 0.15 kg/m3 | CC(C)O [propan-2-ol] + CCCCOCC(C)O
